{
  "source": "PubChem BioAssay AID720663",
  "about": "(NMMLSC, 2013)",
  "note": "Active and inactive are the calls of the source.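 The calls were made as follows: active = inhibition above 50% of lysosomal marker LAMP-1 reaching the cell surface; inactive = inhibition below 50%.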",
  "data": [
    {"test_system": "TALL-104 cells, LAMP-1 externalization, flow cytometry", "test": "inhibitors of lytic granule exocytosis via LAMP-1, confirmation, TALL-104 cells, flow cytometry, CherryPick01 (AID 720663)", "settings": "at 30 µM; stronger effect = higher value", "values": [
      {"smiles": "CC(=O)Nc1ccc2c(=O)n(-c3ccccc3)sc2c1", "inhibition": "39.8% (inactive)"},
      {"smiles": "CN(C)CCNC(=O)c1ccc(-c2cn3c(-c4ccc(Oc5ccccc5)cc4)cnc3cn2)cc1", "inhibition": "66.8%"},
      {"smiles": "O=C(OCc1ccccc1)N(CCCCN(CCCNCc1ccccc1)C(=O)OCc1ccccc1)CCCNCc1ccccc1", "inhibition": "99.5%"},
      {"smiles": "COc1ccc(-n2sc3ccccc3c2=O)cc1", "inhibition": "60.1%"},
      {"smiles": "CCN(CC)CCCNc1ccc(-c2nnc(-c3ccc(OCC(C)C)cc3)o2)cn1", "inhibition": "87.3%"},
      {"smiles": "CN1CCN(c2cc(-c3ccccc3)nc3cc(-c4ccc(F)cc4)nn23)CC1", "inhibition": "99.7%"},
      {"smiles": "CN1CCN(CCCNC(=O)c2ccc(/C=C3\\Sc4ccccc4N(Cc4ccc(F)cc4)C3=O)cc2)CC1", "inhibition": "4.5% (inactive)"},
      {"smiles": "CCCS(=O)(=O)Nc1ccc(Nc2c3ccccc3nc3ccccc23)c(OC)c1", "inhibition": "99.7%"},
      {"smiles": "CN(C)CCCNC(=S)NCC(c1ccc(Cl)cc1Cl)c1c[nH]c2ccccc12", "note": "(stereo not given)", "inhibition": "24% (inactive)"},
      {"smiles": "O=c1c2ccccc2sn1-c1ccccc1F", "inhibition": "44% (inactive)"},
      {"smiles": "CN(c1ccccc1)S(=O)(=O)c1cccc(C(=O)NCCc2c[nH]c3ccccc23)c1", "inhibition": "13.7% (inactive)"},
      {"smiles": "O=S(=O)(c1ccccc1)c1nnn2c1nc(NC1CCN(Cc3ccccc3)CC1)c1cc(Cl)ccc12", "inhibition": "98.7%"},
      {"smiles": "COC(=O)[C@]12CCCCC=C1N(Cc1cccc3ccccc13)C(=O)[C@H](CC(=O)NCc1ccc(OC)c(OC)c1)C2", "inhibition": "15.9% (inactive)"},
      {"smiles": "Fc1ccc(/C=C\\c2nccc3c2[nH]c2ccccc23)cc1", "inhibition": "98.7%"},
      {"smiles": "CCCCC[C@@H](C)N1C[C@@H](COCc2ccccc2)Oc2cc(N3CC[C@H](N(C)C)C3)ccc2S1(=O)=O", "inhibition": "95.1%"},
      {"smiles": "CC1=C(C)CS(=O)N(S(=O)(=O)c2ccc(Cl)cc2)C1", "note": "(stereo not given)", "inhibition": "99.5%"},
      {"smiles": "N#Cc1c(Nc2ccccc2Cl)s[nH]c1=O", "inhibition": "95.1%"},
      {"smiles": "c1ccc(CNc2nc(NCC3CC3)nc3cc(-c4ccccc4)sc23)cc1", "inhibition": "97.8%"},
      {"smiles": "COC(=O)c1c(NC(=O)c2ccc(C(=O)c3ccccc3)cc2)sc2c1CC(C)(C)NC2(C)C", "inhibition": "39.6% (inactive)"},
      {"smiles": "COc1ccc(-c2cc(NC=O)c3ncc(-c4cccc(OC)c4)n3c2)cc1", "inhibition": "82.8%"},
      {"smiles": "COc1cccc(NC(=O)Nc2nc(-c3ccc(OC)c(OC)c3)cs2)c1", "inhibition": "99.6%"},
      {"smiles": "COc1ccc([N+](=O)[O-])cc1Nc1c2ccccc2nc2ccccc12", "inhibition": "20.4% (inactive)"},
      {"smiles": "CCOc1ccccc1CNC(=O)C1CCN(c2nnc(C)c3c(C)n(-c4ccc(C)cc4)nc23)CC1", "inhibition": "99.6%"},
      {"smiles": "CCOc1ccc2[nH]c3c(N4CCc5ccccc5C4)ncnc3c2c1", "inhibition": "5.2% (inactive)"},
      {"smiles": "O=c1c2ccccc2sn1-c1ccccc1", "inhibition": "79.9%"},
      {"smiles": "O=C(Nc1ccc(F)cc1)c1nc(S(=O)(=O)Cc2ccccc2)ncc1Cl", "inhibition": "98.8%"},
      {"smiles": "Cc1cc(N2CCN(c3nc(-c4ccc([N+](=O)[O-])cc4)cs3)CC2)c2ccccc2n1", "inhibition": "99.2%"},
      {"smiles": "CCOc1ccc2nc(N(CCCN(C)C)C(=O)c3ccc(S(=O)(=O)N4CCc5ccccc5C4)cc3)sc2c1", "inhibition": "100%"},
      {"smiles": "Cc1cc(C)c2nc(C)cc(N/N=C/c3ccc(O)cc3)c2c1", "inhibition": "100%"},
      {"smiles": "O=C1CC(Sc2nnnn2-c2ccccc2)C(=O)N1c1cccc(Cl)c1", "note": "(stereo not given)", "inhibition": "89.1%"},
      {"smiles": "CCCCCCSc1cccc(-c2nc3ccccn3c2NCc2ccccc2)c1", "inhibition": "-0.5% (inactive)"},
      {"smiles": "CCc1ccc(/C=C2/Sc3ccccc3N(CC(=O)NCCCN3CCOCC3)C2=O)cc1", "inhibition": "36.6% (inactive)"},
      {"smiles": "COc1ccc(N2C(=O)CC(Sc3nnc(-c4ccccc4)o3)C2=O)cc1", "note": "(stereo not given)", "inhibition": "92.9%"},
      {"smiles": "O=C1C=CC(=O)N1N(c1ccccc1)c1ccccc1", "inhibition": "45.4% (inactive)"},
      {"smiles": "Nc1c(C(=O)NCc2ccc(F)cc2)c2nc3ccccc3nc2n1CCCN1CCOCC1", "inhibition": "58.3%"},
      {"smiles": "COc1cccc(-c2cnc3c(NC(C)=O)cc(-c4ccccc4OC)cn23)c1", "inhibition": "56.1%"},
      {"smiles": "CCOc1ccc2nc(C)cc(Nc3cccc([N+](=O)[O-])c3)c2c1", "inhibition": "100%"},
      {"smiles": "COc1cccc(-c2cnc3c(NC(C)=O)cc(-c4ccsc4)cn23)c1", "inhibition": "53.2%"},
      {"smiles": "CCCCC[C@@H](C)N1C[C@@H](COCc2ccccc2)Oc2cc(N3CC[C@@H](N(C)C)C3)ccc2S1(=O)=O", "inhibition": "95.3%"},
      {"smiles": "CCCCC[C@@H](C)N1C[C@H](COCc2ccccc2)Oc2cc(N3CC[C@@H](N(C)C)C3)ccc2S1(=O)=O", "inhibition": "93.7%"},
      {"smiles": "CCC(=C(c1ccc(OC)cc1)c1ccc(OC)cc1)c1cn(CC(O)CN2CCN(C)CC2)c2ccccc12", "note": "(stereo not given)", "inhibition": "14.8% (inactive)"},
      {"smiles": "COc1cc(-c2coc3c(C(=O)NCc4ccc(OC)c(OC)c4)cccc23)ccc1O", "inhibition": "29.4% (inactive)"},
      {"smiles": "O=C1Nc2ccc(Br)cc2/C1=C/C(=O)c1ccccc1", "inhibition": "39.4% (inactive)"},
      {"smiles": "Cn1sc(=O)c2cc(S(=O)(=O)NC3CC3)ccc21", "inhibition": "73.2%"},
      {"smiles": "CC1=NOC(=O)/C1=C/c1ccc(-c2ccc(Cl)cc2)o1", "inhibition": "84.6%"},
      {"smiles": "COC(=O)c1c(NC(=O)c2nc3ccccc3s2)sc2c1CC(C)(C)NC2(C)C", "inhibition": "81.5%"},
      {"smiles": "N#Cc1ccc(NC(=O)Nc2ccc(Oc3ccc(NC(=O)Nc4ccc(C#N)cc4)cc3)cc2)cc1", "inhibition": "40.4% (inactive)"},
      {"smiles": "CCOC(=O)c1c(NC(=O)COc2ccccc2OCC)sc2c1CC(C)(C)NC2(C)C", "inhibition": "94.7%"},
      {"smiles": "CCc1ccc2nc(N(CCCN(C)C)C(=O)c3ccc(S(=O)(=O)N4CCc5ccccc5C4)cc3)sc2c1", "inhibition": "97.7%"},
      {"smiles": "COc1ccccc1CNc1nc(NCc2ccc3occc3c2)c2sccc2n1", "inhibition": "37.5% (inactive)"},
      {"smiles": "CC1COCC(C)N1C1=C(Cl)C(=O)c2ccccc2C1=O", "note": "(stereo not given)", "inhibition": "99.7%"},
      {"smiles": "CC(=O)Nc1ccc2sn(-c3ccccc3)c(=O)c2c1", "inhibition": "26.4% (inactive)"},
      {"smiles": "Cc1ccc(-n2nnc3c(=O)oc4ccccc4c32)cc1", "inhibition": "98.8%"},
      {"smiles": "COc1ccc(-c2cc(NC=O)c3ncc(-c4ccccc4)n3c2)cc1OC", "inhibition": "69.9%"},
      {"smiles": "CCc1nc2ccc(C(=O)NC3CCN(Cc4ccccc4)CC3)cn2c1N(C)Cc1cc2ccccc2s1", "inhibition": "22.5% (inactive)"},
      {"smiles": "Cc1ccc(Nc2nc(NCc3ccco3)c3ccccc3n2)cc1", "inhibition": "58.7%"},
      {"smiles": "O=C(Cn1sc2ccccc2c1=O)NC12CC3CC(CC(C3)C1)C2", "inhibition": "50% (inactive)"},
      {"smiles": "CCOC(=O)c1cc(-c2csc(Nc3c(C)cc(C)cc3C)n2)on1", "inhibition": "70.1%"},
      {"smiles": "CCOc1cc(CNCCc2ccc(S(N)(=O)=O)cc2)ccc1OCc1ccc(Cl)cc1", "inhibition": "99.8%"},
      {"smiles": "OC(CNCC(c1ccc(Cl)cc1Cl)c1c[nH]c2ccccc12)c1ccccc1", "note": "(stereo not given)", "inhibition": "35.2% (inactive)"},
      {"smiles": "O=C(CN1C(=O)/C(=C\\c2cccc(Br)c2)Oc2ccccc21)NCCCN1CCOCC1", "inhibition": "77%"},
      {"smiles": "CC(C)(c1ccccc1)c1ccc(OCC(O)CNC2CCN(Cc3ccccc3)CC2)cc1", "note": "(stereo not given)", "inhibition": "97.6%"},
      {"smiles": "CC(C)CNC(=O)c1c(N)n(Cc2ccc3c(c2)OCO3)c2nc3ccccc3nc12", "inhibition": "21% (inactive)"},
      {"smiles": "O=c1c2ccc(F)cc2sn1-c1ccccc1", "inhibition": "77.6%"},
      {"smiles": "Cc1ccc(S(=O)(=O)n2ccc3c(OCCOCCNCc4ccc(F)cc4)cccc32)cc1", "inhibition": "85%"},
      {"smiles": "COc1cccc(-c2cnc3c(NC=O)cc(-c4ccccc4)cn23)c1", "inhibition": "38.8% (inactive)"},
      {"smiles": "Cn1cncc1C#Cc1c(-c2ccc(S(C)(=O)=O)cc2)sc2ccccc12", "inhibition": "17% (inactive)"},
      {"smiles": "CCOC(=O)c1c(CSc2ccccc2)n(C)c2cc(Br)c(O)c(CN(C)C)c12", "inhibition": "25.5% (inactive)"},
      {"smiles": "CCOC(=O)c1nnc(-c2ccccc2)nc1Sc1ccccc1Cl", "inhibition": "4.8% (inactive)"},
      {"smiles": "CCCCn1c(=N)n(CC(=O)c2ccc(Br)s2)c2ccccc21", "inhibition": "100%"},
      {"smiles": "CC1(C(=O)OCC(=O)Nc2nc(-c3ccc(F)c(F)c3)cs2)CC1(Cl)Cl", "note": "(stereo not given)", "inhibition": "-10.8% (inactive)"},
      {"smiles": "O=C(Cn1sc2ccccc2c1=O)Nc1ccc(F)cc1", "inhibition": "51.7%"},
      {"smiles": "CCCNC(=O)Cn1sc2nc(C)cc(C)c2c1=O", "inhibition": "41.7% (inactive)"},
      {"smiles": "O=CNc1cc(-c2ccsc2)cn2c(-c3ccccc3)cnc12", "inhibition": "52.6%"},
      {"smiles": "COc1ccccc1CNc1nc(NCc2ccc(C(C)C)cc2)c2sccc2n1", "inhibition": "78.5%"}
    ]}
  ]
}
